Read-outs that look alike come from different tables or passages of the source. Positions of bridges follow the written chain, without caps; N, C: chain ends. Non-standard residues stand in square brackets, D forms with d. Residues, ends and D or L forms follow the SMILES beside them. *: point of attachment. Ileψ(thiazoline)Cys = CC[C@H](C)[C@H](N)C1=N[C@H](C(=O)*)CS1; dOrn = NCCC[C@@H](N)C(=O)O; Nle = CCCC[C@H](N)C(=O)O; For = O=C*
Experiments:
[1] = system: peritoneal neutrophils; test: Test for true chemotaxis (Zigmond and Hirsch technique); assay type: cell-based, rabbit
From the text: Increased penetration of cells into or through the filter of a Boyden chamber system under the stimulus of a chemical agent is generally taken as indicating the chemotactic activity of the agent. Zigmond and Hirsch (J. Exp. Med., Volume 137, Page 387, 1973) have pointed out that the increased migration could result from a response directed by the chemical gradient, that is from chemotaxis, or from increased random locomotion or both. These authors have described a technique for determining if the movement of the cells into the filter of a Boyden chamber system under the influence of different gradients is greater than could be expected on the basis of increased rates of locomotion alone and to that extent is due to a true chemotactic response.
In testing f-Met-Leu-Phe-OH for true chemotaxis, 5×10^6 /ml of washed peritoneal neutrophils obtained twelve hours after the administration of 0.1 percent glycogen were suspended in varying concentrations of the peptide and placed in the upper compartment of a modified Boyden chamber. […] Using the micrometer of the fine adjustment of the microscope, the distance was measured from the top of the filter to the farthest plane of focus still containing two cells. This distance was determined across five fields and averaged. […] The test results were analyzed as described by Zigmond and Hirsch. […]

[2] = system: Rabbit polymorphononuclear leukocytes (neutrophils); assay type: cell-based; conditions: for times more active than f-Met-Phe-OH: chemotactic activity and lysosomal enzyme secretion-inducing activity alike
Protocol: Rabbit polymorphononuclear leukocytes (neutrophils) were obtained 12 to 14 hours after the intraperitoneal injection of 0.1 percent glycogen, as described in Becker et al (Z. Immunitaetsforsch Exp. Klin. Immunol., Volume 143, Page 466 1972). They were washed in Hanks' balanched salt solution containing 0.01 M tris (hydroxymethyl) aminomethane, pH 7.2, 1 mg/ml of glucose, and 1 mg/ml of crystalline bovine serum albumin. The Hanks' balanced salt solution was the buffer used throughout the work.
The assay employed a modified Boyden chamber as described by Becker et al, supra. […] The loaded chambers were incubated for 30 minutes at 37° C. This time interval was chosen as giving, for the particular batch of filters used, the greatest difference between the number of cells moving into the filter with no peptide in the lower compartment (background) and the maximum number of cells moving into the filter when stimulated by peptide. At the end of the incubation the filters were removed and stained and the number of cells in five high-power (400 magnification) fields (5 HPF) were counted and averaged. The results reported are the means of duplicate chambers.
The migration enhancing activities of different peptides were compared essentially as described by Schiffmann et al (J. Immunol., Volume […], Page 1830, 1975) and Showell et al (J. Immunol., Volume 116, Page 99, 1976). In measuring the relative activity of the peptides, a peptide was diluted so that each concentration was one quarter that of the next higher concentration. The concentrations of peptides were chosen on the basis of preliminary experiments to cover the range giving minimum to maximal activity. The chemotactic activity plotted against the logarithm of the molar concentration of peptide yielded a sigmoidal-shaped dose-response curve. Different peptides tested at the same time with the same cells gave curves which were parallel to each other in their linear portions and had the same maximum. The activities of the different peptides are reported as the ED50, i.e., the concentration of chemotactic factor giving 50 percent of the maximum activity.
The results are reported as the means ED50 ±SE (standard error) as determined by at least three separate experiments. In this assay, the lower the value of the ED50, the greater is the chemotactic activity.

[3] = system: neutrophils; assay type: cell-based, rabbit
Protocol: The cytochalasin B was diluted from a stock solution containing 4 mg/ml in dimethyl sulphoxide. […] The mixtures were then incubated for five minutes at 37° C. (the release is completed in one minute of less under these conditions) and the tubes centrifuged at 2500 rpm (1400 g) for five minutes at 4° C.
The total concentration of enzyme was measured by lysing the cells with buffer containing 0.1 percent Triton X-100 (Beckmann Instruments, Inc., Fullerton, Calif.). […] The lactic dehydrogenase of each supernate was measured to insure that the peptides induced no release of this cytoplasmic marker.
The lysosomal enzyme-inducing activity for each peptide was obtained from the dose-response curve as its ED50, i.e., the molar concentration of peptide causing 50 percent of the maximal release of either lysozyme or β-glucuronidase. Again, the lower the value of the ED50, the greater is the lysosomal enzyme secretion-inducing activity.

[4] = target: T1, surface receptor of rabbit polymorphonuclear leukocytes (Oryctolagus cuniculus, UniProt Q05394); test: Inhibition of F-Nle-leu (3H)PHE binding to rabbit PMN
T1 construct: endogenous in cells; host or cells: rabbit polymorphonuclear leukocytes (neutrophils)
T1 sequence (Q05394 1-352): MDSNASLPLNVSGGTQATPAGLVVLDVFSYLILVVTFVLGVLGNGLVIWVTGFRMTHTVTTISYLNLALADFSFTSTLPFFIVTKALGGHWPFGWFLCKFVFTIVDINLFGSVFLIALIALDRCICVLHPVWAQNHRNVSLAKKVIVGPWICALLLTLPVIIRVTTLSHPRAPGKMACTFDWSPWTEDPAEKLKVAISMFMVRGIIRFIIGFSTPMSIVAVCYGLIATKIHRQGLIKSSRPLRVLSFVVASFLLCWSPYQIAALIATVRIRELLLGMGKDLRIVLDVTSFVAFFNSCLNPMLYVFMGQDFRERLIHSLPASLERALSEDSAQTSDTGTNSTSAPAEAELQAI

[5] = system: Escherichia coli ATCC 25922; test: Kirby-Bauer disc assay, inhibitory zone size; assay type: cell-based; conditions: E. coli, alone
Protocol: In these tables antimicrobial activity is expressed as inhibitory zone size as performed by the Kirby-Bauer assay.
The experiments in Tables 10-14 were performed using the following bacteria, media and experimental protocol:
The bacteria were Escherichia coli ATCC 25922 and Pseudomonas aeruginosa ATCC 27835.
The media was Trypticase soy agar (Baltimore Biological Laboratories, BBL) used as a general growth medium. Broth media was Brain heart infusion broth (BBL) for E. coli and medium 81 [trypticase soy broth without dextrose plus 1% potassium nitrate] for P. aeruginosa.
Antimicrobial susceptibility was tested on M9 medium [a glucose minimal salts medium (Miller, 1972)] solidified with 1.5% agar (Difco) for the base or 0.7% agar for overlay.
The following is the experimental protocol: Broth cultures of E. coli or P. aeruginosa were grown overnight in broth at 35° C. Cultures were diluted to visually match a 0.5 McFarland turbidity standard (Matsen and Barry, 1974); the numbers of organisms in this suspension ordinarily were .congruent.10^8 viable cells per ml. Ten microliter (ul) was inoculated into 10 ml. of 0.7% M9 agar that was melted and cooled to 46°-50° C. This was overlaid onto a 50 ml base of 1.5% M9 agar in 15 cm diameter petri dishes. The agar overlay was allowed to harden at room temperature for 30 min. Antimicrobial tests disks were placed on the surface of the agar, and the plates were incubated overnight at 35° C. Diameters of zones of inhibition of bacterial growth were measued with a vernier caliper and recorded to the nearest 0.1 mm.

[6] = system: MN (monocyte) from human peripheral blood
Protocol: (§1) The neutrophil (PMN) experiments used 3μ nitrocellulose filters and the monocyte (MN) experiments used 5μ polycarbonate filters. PMNs and MNs were prepared from human peripheral blood by Ficoll-Hypaque and dextran sedimentation techniques. […] PMN experiments were incubated at 37° C. for 3 hours, MN experiments for 90 minutes. After this the filters were removed and stained and counted visually with a microscope.

[7] = system: PMN (neutrophil) from human peripheral blood
Protocol: as §1

[8] = system: leukocytes; conditions: relatively weak chemoattractants; cited from earlier work
[9] = concentration giving 50 percent of maximum activity, mean of at least three experiments, 30 minutes at 37° C.
[10] = molar concentration causing 50 percent of maximal release, 10 μg/ml cytochalasin B, five minutes at 37° C.
[11] = [F-Met-Leu-Phe] 10^-6, Sulfadiazine 5 μg
[12] = [F-Met-Leu-Phe] 10^-6, Sulfadiazine 50 μg
[13] = [F-Met-Leu-Phe] 10^-6, Sulfadiazine 100 μg
[14] = [F-Met-Leu-Phe] 10^-7, Sulfadiazine 5 μg
[15] = [F-Met-Leu-Phe] 10^-7, Sulfadiazine 50 μg
[16] = [F-Met-Leu-Phe] 10^-7, Sulfadiazine 100 μg
[17] = [F-Met-Leu-Phe] 10^-7, Sulfadiazine 250 μg
[18] = [F-Met-Leu] 10^-3, Sulfadiazine 5 μg
[19] = [F-Met-Leu] 10^-3, Sulfadiazine 25 μg
[20] = [F-Met-Leu] 10^-3, Sulfadiazine 50 μg
[21] = [F-Met-Leu] 10^-3, Sulfadiazine 100 μg
[22] = [F-Met-Leu] 10^-3, Sulfadiazine 250 μg
[23] = [F-Met-Leu] 10^-4, Sulfadiazine 5 μg
[24] = [F-Met-Leu] 10^-4, Sulfadiazine 25 μg
[25] = [F-Met-Leu] 10^-4, Sulfadiazine 50 μg
[26] = [F-Met-Leu] 10^-4, Sulfadiazine 100 μg
[27] = [F-Met-Leu] 10^-4, Sulfadiazine 250 μg

Q: With CSCC[C@H](NC=O)C(=O)N[C@@H](CC(C)C)C(=O)N[C@@H](Cc1ccccc1)C(=O)O [FMLP, formyl-methionyl-leucyl-phenylalanine] as the compound, how does the “distance cells moved farther than predicted” value ([1]; positive gradient (peptide below greater than above the filter)) read?
A: greater than 10 μm

Q: And the “true chemotaxis (experimental vs predicted values)” value ([1]; sixty minutes at 37° C., 3.0 μm pore size filter)?
A: truly chemotactic

Q: And the “times more active than f-Met-Phe-OH” value [2]?
A: 5,000 times

Q: And the “Chemotactic Activity ED50 ± SE” value [2, 9]?
A: 7.0 ± 1.7 × 10^-11 M

Q: What about the “ED50 ± SE B-Glucoronidase” value [3, 10] of the same compound?
A: 2.6 ± 0.32 × 10^-10 M

Q: And the “ED50 ± SE Lysosyme” value [3, 10]?
A: 2.4 ± 0.31 × 10^-10 M

Q: What about the IC50 [4] of the same compound?
A: 0.5 nM

Q: What does the source list for Nc1ccc(S(=O)(=O)Nc2ncccn2)cc1 [Sulfadiazine, sulfadiazine]?
A: Zone Diameter ([5]; disc 10 μg): 28.0 mm; Zone Diameter ([5]; disc 25 μg): 32.0 mm; % Inhibition MN [6, 11]: 22.5%; % Inhibition MN [6, 12]: 21.0%; % Inhibition MN [6, 13]: 82.0%; % Inhibition MN [6, 14]: 14.6%; % Inhibition MN [6, 15]: 13.7%; % Inhibition MN [6, 16]: 41.7%; % Inhibition MN [6, 17]: 96.6%; % Inhibition MN [6, 18]: 2.5%; % Inhibition MN [6, 19]: 13.0%; % Inhibition MN [6, 20]: 36.7%; % Inhibition MN [6, 21]: 43.3%; % Inhibition MN [6, 22]: 98.0%; % Inhibition MN [6, 23]: 20.0%; % Inhibition MN [6, 24]: 17.5%; % Inhibition MN [6, 25]: 17.0%; % Inhibition MN [6, 26]: 60.0%; % Inhibition MN [6, 27]: 97.5%; % Inhibition PMN [7, 11]: 10.0%; % Inhibition PMN ([7]; [F-Met-Leu-Phe] 10^-6, Sulfadiazine 25 μg): 8.0%; % Inhibition PMN [7, 12]: 39.5%; % Inhibition PMN [7, 13]: 49.0%; % Inhibition PMN [7, 14]: 16.8%; % Inhibition PMN ([7]; [F-Met-Leu-Phe] 10^-7, Sulfadiazine 25 μg): 18.0%; % Inhibition PMN [7, 15]: 65.8%; % Inhibition PMN [7, 16]: 70.8%; % Inhibition PMN [7, 17]: 88.0%; % Inhibition PMN [7, 18]: 19.0%; % Inhibition PMN [7, 19]: 38.0%; % Inhibition PMN [7, 20]: 48.7%; % Inhibition PMN [7, 21]: 73.3%; % Inhibition PMN [7, 22]: 83.9%; % Inhibition PMN [7, 23]: 1.0%; % Inhibition PMN [7, 24]: 14.0%; % Inhibition PMN [7, 25]: 37.5%; % Inhibition PMN [7, 26]: 53.0%; % Inhibition PMN [7, 27]: 41.0%

Q: With CC[C@H](C)[C@H](N)C1=N[C@H](C(=O)N[C@@H](CC(C)C)C(=O)N[C@H](CCC(=O)O)C(=O)N[C@H](C(=O)N[C@H]2CCCCNC(=O)[C@H](CC(N)=O)NC(=O)[C@@H](CC(=O)O)NC(=O)[C@H](Cc3cnc[nH]3)NC(=O)[C@@H](Cc3ccccc3)NC(=O)[C@H]([C@@H](C)CC)NC(=O)[C@@H](CCCN)NC2=O)[C@@H](C)CC)CS1 [bacitracin] ({Ileψ(thiazoline)Cys}-L[dE]IK[dOrn]I[dF]H[dD]N; lactam 4-C) as the compound, how does the chemoattractant concentration [8] read?
A: 10^-5 to 10^-6 M

Q: With CSCC[C@H](NC=O)C(=O)N[C@@H](CC(C)C)C(=O)N[C@@H](Cc1ccccc1)C(=O)N[C@@H](CCCCN)C(=O)O [f--Met--Leu--Phe--Lys--OH] (For-MLFK-OH) as the compound, how does the “Chemotactic Activity ED50 ± SE” value [2] read?
A: 7.0 ± 1.0 × 10^-10 M

Q: And the “times more active than f-Met-Phe-OH” value [2]?
A: 500 times

Q: And the “ED50 ± SE B-Glucoronidase” value [3]?
A: 1.9 ± 0.3 × 10^-9 M

Q: And the “ED50 ± SE Lysosyme” value [3]?
A: 1.7 ± 0.5 × 10^-9 M

Q: Which results are given for CSCC[C@H](NC(=O)[C@H](CCSC)NC(=O)[C@H](CCSC)NC(=O)[C@H](CCSC)NC=O)C(=O)O [f--Met--Met--Met--Met--OH] (For-MMMM-OH)?
A: Chemotactic Activity ED50 ± SE [2]: 3.0 ± 0.13 × 10^-10 M; ED50 ± SE B-Glucoronidase [3]: 3.0 ± 0.73 × 10^-9 M; ED50 ± SE Lysosyme [3]: 2.4 ± 0.34 × 10^-9 M

Q: For CSCC[C@H](NC=O)C(=O)N[C@@H](CCSC)C(=O)N[C@@H](Cc1ccccc1)C(=O)O [f--Met--Met--Phe--OH] (For-Met-Met-Phe-OH), which “Chemotactic Activity ED50 ± SE” value [2, 9] is on record?
A: 2.1 ± 0.49 × 10^-10 M

Q: And the “ED50 ± SE B-Glucoronidase” value [3]?
A: 1.8 ± 0.24 × 10^-9 M

Q: What about the “ED50 ± SE Lysosyme” value [3] of the same compound?
A: 1.9 ± 0.4 × 10^-9 M

Q: What does the source list for CSCC[C@H](NC=O)C(=O)N[C@@H](Cc1ccccc1)C(=O)O [f--Met--Phe--OH] (For-Met-Phe-OH)?
A: Chemotactic Activity ED50 ± SE [2, 9]: 4.1 ± 0.95 × 10^-7 M; ED50 ± SE B-Glucoronidase [3]: 2.0 ± 0.42 × 10^-6 M; ED50 ± SE Lysosyme [3, 10]: 1.5 ± 0.39 × 10^-6 M

Q: What does the source list for CCCC[C@H](NC=O)C(=O)N[C@@H](CC(C)C)C(=O)N[C@@H](Cc1ccccc1)C(=O)O [f--Nle--Leu--Phe--OH] (For-[Nle]-Leu-Phe-OH)?
A: Chemotactic Activity ED50 ± SE [2]: 6.6 ± 1.2 × 10^-10 M; ED50 ± SE B-Glucoronidase [3]: 1.9 ± 0.2 × 10^-9 M; ED50 ± SE Lysosyme [3]: 1.5 ± 0.2 × 10^-9 M

Q: Which “times less active than f-Met-Leu-Phe-OH” value ([2]; chemotactic and lysosomal enzyme secretion-inducing activities) does the source give for CSCC[C@H](NC=O)C(=O)N[C@@H](Cc1ccccc1)C(=O)N[C@@H](CC(C)C)C(=O)O [f-Met-Phe-Leu-OH] (For-Met-Phe-Leu-OH) here?
A: 500 times

Q: For gramicidin, which chemoattractant concentration [8] is on record?
A: 10^-5 to 10^-6 M

Q: For tyrocidin, which chemoattractant concentration [8] is on record?
A: 10^-5 to 10^-6 M

From patent US4427660A, “Formyl-methionyl chemotatic peptide antibiotic conjugates useful in treating infections” (priority 1982, dated 1984)
